For one test, the target named is T1, mTOR kinase (Homo sapiens, UniProt P42345).
T1 construct: purchased Millipore, USA
As to the kind of experiment: mTOR kinase TR-FRET assay. Conditions: read-out: mTO R. The class given is biochemical. In short, it runs like this:
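TR-FRET read-out (340 nm excitation, 615/665 nm emission) of Thr389 phosphorylation of a ULight-labeled p70 S6K peptide (50 nM) by mTOR, 20 μM ATP, 60 min room temperature after 60 min compound preincubation. Buffer HEPES pH 7.5 with MnCl2, EGTA; IC50 by sigmoidal dose-response.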
For orientation: In TR-FRET formats the signal depends on donor and acceptor labels being close together.

The target in test [1] is T2, PI3Kα (wild-type), P110/P85α (Homo sapiens, UniProt P42336).
T2 construct: made in house; host or cells: SF9 insect cells
T2 sequence (P42336 whole entry): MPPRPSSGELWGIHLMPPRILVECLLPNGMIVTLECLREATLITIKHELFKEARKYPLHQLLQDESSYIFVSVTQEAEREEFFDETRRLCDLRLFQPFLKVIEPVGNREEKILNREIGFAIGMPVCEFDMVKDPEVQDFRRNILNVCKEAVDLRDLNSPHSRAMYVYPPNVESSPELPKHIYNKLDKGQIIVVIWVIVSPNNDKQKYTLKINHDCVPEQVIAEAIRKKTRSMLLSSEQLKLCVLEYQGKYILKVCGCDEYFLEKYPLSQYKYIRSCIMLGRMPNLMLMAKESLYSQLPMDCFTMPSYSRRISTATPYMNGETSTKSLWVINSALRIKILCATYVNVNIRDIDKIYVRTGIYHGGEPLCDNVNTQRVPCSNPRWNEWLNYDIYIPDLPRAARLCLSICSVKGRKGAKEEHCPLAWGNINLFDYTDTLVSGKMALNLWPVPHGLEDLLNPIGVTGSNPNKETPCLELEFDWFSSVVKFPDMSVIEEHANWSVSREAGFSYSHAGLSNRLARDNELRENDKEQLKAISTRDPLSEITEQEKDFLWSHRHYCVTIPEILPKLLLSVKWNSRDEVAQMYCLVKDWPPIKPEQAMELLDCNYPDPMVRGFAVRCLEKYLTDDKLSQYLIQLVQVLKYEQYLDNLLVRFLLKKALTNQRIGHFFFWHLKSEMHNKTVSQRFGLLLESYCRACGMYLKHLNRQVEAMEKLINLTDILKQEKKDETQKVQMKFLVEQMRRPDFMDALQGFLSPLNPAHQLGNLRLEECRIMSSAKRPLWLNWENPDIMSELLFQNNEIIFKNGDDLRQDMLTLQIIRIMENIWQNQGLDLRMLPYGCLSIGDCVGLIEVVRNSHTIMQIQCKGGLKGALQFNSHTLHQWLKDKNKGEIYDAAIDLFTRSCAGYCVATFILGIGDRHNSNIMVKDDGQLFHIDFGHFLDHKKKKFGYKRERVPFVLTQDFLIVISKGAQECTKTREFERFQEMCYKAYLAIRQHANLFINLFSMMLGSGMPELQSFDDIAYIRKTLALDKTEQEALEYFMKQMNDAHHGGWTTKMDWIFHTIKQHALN
T2 sequence (P27986 whole entry partner): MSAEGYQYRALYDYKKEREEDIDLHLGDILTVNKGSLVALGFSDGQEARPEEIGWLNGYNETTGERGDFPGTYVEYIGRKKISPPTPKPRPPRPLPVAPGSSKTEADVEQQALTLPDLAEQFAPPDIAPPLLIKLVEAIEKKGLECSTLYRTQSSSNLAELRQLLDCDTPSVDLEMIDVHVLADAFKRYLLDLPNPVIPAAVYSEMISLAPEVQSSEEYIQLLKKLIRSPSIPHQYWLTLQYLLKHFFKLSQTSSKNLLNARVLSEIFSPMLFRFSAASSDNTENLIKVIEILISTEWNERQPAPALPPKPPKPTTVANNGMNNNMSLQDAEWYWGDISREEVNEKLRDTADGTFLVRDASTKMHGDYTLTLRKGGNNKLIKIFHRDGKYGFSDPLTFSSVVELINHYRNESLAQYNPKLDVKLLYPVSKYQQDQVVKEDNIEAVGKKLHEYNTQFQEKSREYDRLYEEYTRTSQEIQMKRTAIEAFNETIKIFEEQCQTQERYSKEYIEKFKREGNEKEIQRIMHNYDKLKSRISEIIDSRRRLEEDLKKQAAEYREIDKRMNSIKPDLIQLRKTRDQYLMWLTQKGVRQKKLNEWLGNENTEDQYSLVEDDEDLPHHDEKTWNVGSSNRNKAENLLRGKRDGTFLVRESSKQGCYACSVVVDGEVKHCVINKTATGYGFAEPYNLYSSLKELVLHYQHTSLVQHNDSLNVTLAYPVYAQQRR
In words: PI3 Kinase TR-FRET assay, PI3Kα (wild-type). The class given is biochemical. In short, it runs like this:
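TR-FRET read-out of PIP3 formation via biotin-PIP3 displacement (665/615 nm ratio) gave IC50 curves. Enzyme: 5 ng wild-type P110/P85α from Sf9 cells, 60 min RT with compound and PIP2 (MgCl2 40 mM, DTT 5 mM), then 30 min RT kinase reaction at 10 μM ATP and 10 μM PIP2.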

Another test has as its system PC3 cells. As to the kind of experiment: XTT assay for cell viability, PC3 cells. Conditions: Homo sapiens, PC-3, cell viability. The class given is cell-based, human. In short, it runs like this: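 PC3 cells seeded at 1000 cells/well, grown 24 h, then exposed to serial dilutions of compound for 96 h. Viability read by XTT dye at 37° C, absorbance 465 nm. EC50 from sigmoidal dose-response fit.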
Background: Tetrazolium assays rely on reduction of a dye to a coloured formazan, in cell work by metabolically active cells.

Test [2] deals with pAKT(5473) (phosphorylated at serine 473), PC3 cells. As to the kind of experiment: In-cell Western assay, pAKT(5473) in PC3 cells. The class given is cell-based. Conditions: Homo sapiens, PC-3, In-cell Western, read-out: pAkt-S473. The method, then: Cells from human prostate cancer cell line PC3 (American Type Culture Collection (ATCC), Manassas, Va. 20108 USA) were seeded at an optimal density of 22,000 cell/well in 96-well plates containing Ham's F12K medium (90 μL) and incubated overnight. The compound dilutions were carried out in 100% DMSO followed by a dilution in the medium. Test compounds were added in serial dilutions to the wells and incubated for 2 h. The cells were washed and fixed with 4% paraformaldehyde. After incubation at room temperature for 1 h in the dark, blocking was done for 2 h at room temperature. Primary antibodies for phosphorylated (p) AKT(5473) (phosphorylated at serine 473), pAKT(T308) (phosphorylated at threonine 308) and for pS6RP(S235/236) (phosphorylated at serine 235/236) (commercially available from Cell Signaling Technology®, whose protocol was followed for the in-cell western assay, were diluted to the required concentration and added to the corresponding wells followed by overnight incubation at 4° C. Eu-labeled rabbit (PE) (Perkin-Elmer USA catalog #AD0106) secondary antibody was added and incubated for 2 h at room temperature. Delfia® enhancement solution (cat #1244-105, Perkin Elmer USA) was subsequently added to the plate before taking the reading at 615 nm with excitation wavelength of 340 nm, after which 0.5 μg/mL of Hoechst® 33258 dye (Catalog #86140-5, Sigma) was added to the plate and fluorescence emission was read at 460 nm with 355 nm excitation, to evaluate the correction factor. IC50 values were calculated using a sigmoidal dose-response curve fit in GraphPad Prism® v5 software.

Test [3] has as its system pS6RP(S235/236), PC3 cells. In words: In-cell Western assay, pS6RP(S235/236) in PC3 cells. As to conditions: Homo sapiens, PC-3, In-cell Western. The class given is cell-based, human. In short, it runs like this: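 Overnight-seeded PC3 cells were treated 2 h with serially diluted compound, then fixed and immunostained with phospho-specific primary antibodies and Eu-labelled secondary. Time-resolved Eu signal read at 615 nm (ex 340 nm), normalised by Hoechst 33258 staining (ex 355/em 460 nm); IC50 from sigmoidal dose-response fit.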

As to `CN(C)C(=O)c1ccc(NC(=O)Nc2ccc(-c3nc(N4CCOCC4)c4ccc(-c5ccccn5)cc4n3)cc2)cc1` [Example 155, N,N-dimethyl-4-(3-(4-(4-morpholino-7-(pyridin-2-yl)quinazolin-2-yl)phenyl)ureido)-benzamide], the IC50 at mTOR kinase was under 50 nM; in test [1], under 50 nM; with PC3 cells, 201 to 10000 nM; in test [2] it was under 100 nM.

With `CN(C)C(=O)c1ccc(NC(=O)Nc2ccc(-c3nc(N4CCOCC4)c4ccc(-c5ccco5)cc4n3)cn2)cc1` [Example 159, 4-(3-(5-(7-(furan-2-yl)-4-morpholino-quinazolin-2-yl)pyridin-2-yl)ureido)-N,N-dimethyl-benzamide], the IC50 at mTOR kinase was 201 to 10000 nM; in test [1], under 50 nM; with PC3 cells it was under 100 nM; in test [2], under 100 nM.

For `CN(C)CCNC(=O)c1ccc(NC(=O)Nc2ccc(-c3nc(N4CCOCC4)c4ccc(-c5cncnc5)cc4n3)cc2F)cc1` [Example 217, N-(2-(dimethylamino)ethyl)-4-(3-(2-fluoro-4-(4-morpholino-7-(pyrimidin-5-yl)quinazolin-2-yl)phenyl)ureido)-benzamide], the IC50 on mTOR kinase was under 50 nM; in test [1], under 50 nM; in test [3] it was 201 to 10000 nM; with PC3 cells it was 201 to 10000 nM.

`CN(C)C(=O)c1ccc(NC(=O)Nc2ccc(-c3nc(N4CCOCC4)c4ccc(-c5ccc(C(C)(C)O)o5)cc4n3)cc2)cc1` [Example 222, 4-(3-(4-(7-(5-(2-hydroxypropan-2-yl)furan-2-yl)-4-morpholino-quinazolin-2-yl)phenyl)ureido)-N,N-dimethyl-benzamide]: the IC50 at mTOR kinase is under 50 nM; in test [1] it was under 50 nM; in test [3], 201 to 10000 nM; in the test with PC3 cells, 201 to 10000 nM.

Regarding `CN(C)C(=O)c1ccc(NC(=O)Nc2ccc(-c3nc(N4CCOCC4)c4ccc(-c5ccc(C#N)o5)cc4n3)cc2)cc1` [Example 223, 4-(3-(4-(7-(5-cyanofuran-2-yl)-4-morpholino-quinazolin-2-yl)phenyl)ureido)-N,N-dimethyl-benzamide], the IC50 on mTOR kinase was under 50 nM; in test [1], under 50 nM; in test [3], 201 to 10000 nM; with PC3 cells it was 201 to 10000 nM.

On to `CC(=O)c1ccc(-c2ccc3c(N4CCOCC4)nc(-c4ccc(NC(=O)Nc5ccc(C(=O)N(C)C)cc5)cc4)nc3c2)o1` [Example 224, 4-(3-(4-(7-(5-acetylfuran-2-yl)-4-morpholino-quinazolin-2-yl)phenyl)ureido)-N,N-dimethyl-benzamide], for which the IC50 on mTOR kinase is under 50 nM; in test [1] it was under 50 nM; in test [3], 201 to 10000 nM; with PC3 cells, 201 to 10000 nM.

Regarding `CN(C)C(=O)c1ccc(NC(=O)Nc2ccc(-c3nc(N4CCOCC4)c4ccc(-c5cncnc5)cc4n3)c(F)c2)cc1` [Example 237, 4-(3-(3-fluoro-4-(4-morpholino-7-(pyrimidin-5-yl)quinazolin-2-yl)phenyl)ureido)-N,N-dimethyl-benzamide], the IC50 on mTOR kinase is under 50 nM; in test [1], under 50 nM; in test [3], 201 to 10000 nM; in the test on PC3 cells, 201 to 10000 nM.

Take `CN(C)C(=O)c1ccc(NC(=O)Nc2ccc(-c3nc(N4CCOCC4)c4ncc(-c5cnn(C)c5)cc4n3)c(F)c2)cc1` [Example 238, 4-(3-(3-fluoro-4-(7-(1-methyl-1H-pyrazol-4-yl)-4-morpholino-pyrido[3,2-d]pyrimidin-2-yl)phenyl)ureido)-N,N-dimethyl-benzamide]: the IC50 on mTOR kinase is under 50 nM; in test [1], under 50 nM; in test [3], 201 to 10000 nM; in the test on PC3 cells, 201 to 10000 nM.

On to `CN(C)C(=O)c1ccc(NC(=O)Nc2ccc(-c3nc(N4CCOCC4)c4ccc(-c5cccnc5F)cc4n3)c(F)c2)cc1` [Example 241, 4-(3-(3-fluoro-4-(7-(2-fluoropyridin-3-yl)-4-morpholino-quinazolin-2-yl)phenyl)ureido)-N,N-dimethyl-benzamide], for which the IC50 was 50 to 200 nM on mTOR kinase, under 50 nM in test [1], 201 to 10000 nM in test [3] and 201 to 10000 nM in the test on PC3 cells.

In the case of `COc1ncc(-c2ccc3c(N4CCOCC4)nc(-c4ccc(NC(=O)Nc5ccc(C(=O)N(C)C)cc5)cc4F)nc3c2)cn1` [Example 242, 4-(3-(3-fluoro-4-(7-(2-methoxypyrimidin-5-yl)-4-morpholino-quinazolin-2-yl)phenyl)ureido)-N,N-dimethyl-benzamide], the IC50 is under 50 nM on mTOR kinase, under 50 nM in test [1], 201 to 10000 nM in test [3] and 201 to 10000 nM in the test with PC3 cells.

As to `CN(C)C(=O)c1ccc(NC(=O)Nc2ccc(-c3nc(N4CCOCC4)c4ccc(-c5cccnc5)cc4n3)c(F)c2)cc1` [Example 243, 4-(3-(3-fluoro-4-(4-morpholino-7-(pyridin-3-yl)quinazolin-2-yl)phenyl)ureido)-N,N-dimethyl-benzamide], the IC50 was under 50 nM at mTOR kinase, under 50 nM in test [1], 201 to 10000 nM in test [3] and 201 to 10000 nM in the test with PC3 cells.

Turning to `CN(C)C(=O)c1ccc(NC(=O)Nc2ccc(-c3nc(N4CCOCC4)c4ncc(-c5cccnc5F)cc4n3)c(F)c2)cc1` [Example 244, 4-(3-(3-fluoro-4-(7-(2-fluoropyridin-3-yl)-4-morpholino-pyrido[3,2-d]pyrimidin-2-yl)phenyl)ureido)-N,N-dimethyl-benzamide], the IC50 was under 50 nM at mTOR kinase, under 50 nM in test [1], 201 to 10000 nM in test [3] and 201 to 10000 nM in the test on PC3 cells.

With `Cc1noc(C)c1-c1ccc2c(N3CCOCC3)nc(-c3ccc(NC(=O)Nc4ccc(C(=O)N(C)C)c(F)c4)cc3)nc2c1` [Example 246, 4-(3-(4-(7-(3,5-dimethylisoxazol-4-yl)-4-morpholino-quinazolin-2-yl)phenyl)ureido)-2-fluoro-N,N-dimethyl-benzamide], the IC50 on mTOR kinase was under 50 nM; in test [1], 50 to 200 nM; in test [3], 201 to 10000 nM; in the test on PC3 cells it was 201 to 10000 nM.

`CN(C)C(=O)c1ccc(NC(=O)Nc2ccc(-c3nc(N4CCOCC4)c4ccc(-c5ccco5)cc4n3)c(F)c2)cc1` [Example 247, 4-(3-(3-fluoro-4-(7-(furan-2-yl)-4-morpholino-quinazolin-2-yl)phenyl)ureido)-N,N-dimethyl-benzamide]: the IC50 was in the range of 50 to 200 nM on mTOR kinase, 50 to 200 nM in test [1], 201 to 10000 nM in test [3] and 201 to 10000 nM in the test on PC3 cells.

Take `CN(C)C(=O)c1ccc(NC(=O)Nc2ccc(-c3nc(N4CCOCC4)c4ccc(-c5cccnc5NCCO)cc4n3)cc2)cc1` [Example 283, 4-(3-(4-(7-(2-((2-hydroxyethyl)amino)pyridin-3-yl)-4-morpholine-quinazolin-2-yl)phenyl)ureido)-N,N-dimethyl-benzamide]: the IC50 at mTOR kinase lay within 50 to 200 nM; in test [1], 201 to 10000 nM; in test [3] it was 201 to 10000 nM; in the test with PC3 cells it was 201 to 10000 nM.

Regarding `CN(C)C(=O)c1ccc(NC(=O)Nc2ccc(-c3nc(N4CCOCC4)c4ccc(CO)cc4n3)cc2)cc1` [Example 285, 4-(3-(4-(7-(hydroxymethyl)-4-morpholino-quinazolin-2-yl)phenyl)ureido)-N,N-dimethyl-benzamide], the IC50 on mTOR kinase is under 50 nM; in test [1], under 50 nM; in test [3], 201 to 10000 nM; in the test on PC3 cells, under 100 nM.

Consider `CN(C)C1CCN(C(=O)c2ccc(NC(=O)Nc3ccc(-c4nc(N5CCOCC5)c5ccc(C(C)(C)O)cc5n4)cc3)cc2)CC1` [Example 286, 1-(4-(4-(dimethylamino)piperidine-1-carbonyl)phenyl)-3-(4-(7-(2-hydroxypropan-2-yl)-4-morpholino-quinazolin-2-yl)phenyl)urea], for which the IC50 at mTOR kinase was under 50 nM; in test [1], under 50 nM; in test [3], 201 to 10000 nM; with PC3 cells, 201 to 10000 nM.

The values above are taken from US9115092B2, “Substituted quinazoline and pyrido-pyrimidine derivatives” (Asana Biosciences, LLC, priority 2010, dated 2015).
